This passage reports mutagenic call results from PubChem BioAssay AID1259407 (Chemical Carcinogenesis Research Information System (CCRIS), 2018).

The series has as its system CCRIS mutagenicity, Ames/micronucleus/aberration tests. The series is described as follows: CCRIS mutagenicity studies.
The mark [1] stands for this setting: Test System: AMES SALMONELLA TYPHIMURIUM, Strain/Indicator: TA98, Metabolic Activation: NONE, Method: STANDARD PLATE.
[2] abbreviates: Test System: AMES SALMONELLA TYPHIMURIUM, Strain/Indicator: TA98, Metabolic Activation: RAT, LIVER, S-9, AROCLOR 1254, Method: STANDARD PLATE.
[3] abbreviates: Test System: AMES SALMONELLA TYPHIMURIUM, Strain/Indicator: TA100, Metabolic Activation: NONE, Method: STANDARD PLATE.
Setting [4] is: Test System: AMES SALMONELLA TYPHIMURIUM, Strain/Indicator: TA100, Metabolic Activation: RAT, LIVER, S-9, AROCLOR 1254, Method: STANDARD PLATE.
[5] abbreviates: Test System: AMES SALMONELLA TYPHIMURIUM, Strain/Indicator: TA100, Metabolic Activation: NONE, Method: PREINCUBATION
Setting [6] is: Test System: AMES SALMONELLA TYPHIMURIUM, Strain/Indicator: TA97A, Metabolic Activation: NONE, Method: STANDARD PLATE.
Setting [7] is: Test System: AMES SALMONELLA TYPHIMURIUM, Strain/Indicator: TA98, Metabolic Activation: NONE, Method: PREINCUBATION
[8] abbreviates: Test System: AMES SALMONELLA TYPHIMURIUM, Strain/Indicator: TA102, Metabolic Activation: NONE, Method: STANDARD PLATE.

The source made the active and inactive calls. The rule behind the calls is not given here.

With `CC(=O)Nc1ccc(OCC(O)CNC(C)C)cc1` (centres undefined), the mutagenic call runs as follows: (Test System: AMES SALMONELLA TYPHIMURIUM, Strain/Indicator: TA98, Metabolic Activation: NONE) “inactive; negative”; under setting [1], “inactive; negative”; (Test System: AMES SALMONELLA TYPHIMURIUM, Strain/Indicator: TA98, Metabolic Activation: RAT, LIVER, S-9, AROCLOR 1254) “inactive; negative”; under setting [2], “inactive; negative”; (Test System: AMES SALMONELLA TYPHIMURIUM, Strain/Indicator: TA100, Metabolic Activation: NONE) “inactive; negative”; under setting [3], “inactive; negative”. Further, the mutagenic call is, setting by setting: (Test System: AMES SALMONELLA TYPHIMURIUM, Strain/Indicator: TA100, Metabolic Activation: RAT, LIVER, S-9, AROCLOR 1254) “inactive; negative”; under setting [4], “inactive; negative”; (Test System: AMES SALMONELLA TYPHIMURIUM, Strain/Indicator: TA1535, Metabolic Activation: NONE) “inactive; negative”; (Test System: AMES SALMONELLA TYPHIMURIUM, Strain/Indicator: TA1535, Metabolic Activation: RAT, LIVER, S-9, AROCLOR 1254) “inactive; negative”; (Test System: AMES SALMONELLA TYPHIMURIUM, Strain/Indicator: TA1537, Metabolic Activation: NONE) “inactive; negative”; (Test System: AMES SALMONELLA TYPHIMURIUM, Strain/Indicator: TA1537, Metabolic Activation: RAT, LIVER, S-9, AROCLOR 1254) “inactive; negative”.

Regarding `Cc1cc2ccccc2c2ccc3c(c12)[C@@H]1O[C@@H]1[C@H](O)[C@H]3O`, the mutagenic call is, setting by setting: under setting [5], “active; positive”; under setting [3], “active; positive”.

Take `[Cl][Pd-2]([Cl])([Cl])[Cl]`: the mutagenic call was “inactive; negative” under setting [6]; “inactive; negative” (Test System: AMES SALMONELLA TYPHIMURIUM, Strain/Indicator: TA97A, Metabolic Activation: RAT, LIVER, S-9, PHENOBARBITAL AND 5,6-BENZOFLAVONE, Method: STANDARD PLATE); “inactive; negative” (Test System: AMES SALMONELLA TYPHIMURIUM, Strain/Indicator: TA97A, Metabolic Activation: RAT, LIVER, S-9, PHENOBARBITAL AND BETA-NAPHTHOFLAVONE, Method: STANDARD PLATE); “inactive; negative” under setting [7]; “inactive; negative” under setting [1]; “inactive; negative” (Test System: AMES SALMONELLA TYPHIMURIUM, Strain/Indicator: TA98, Metabolic Activation: RAT, LIVER, S-9, AROCLOR 1254, Method: PREINCUBATION). Further, the mutagenic call runs as follows: (Test System: AMES SALMONELLA TYPHIMURIUM, Strain/Indicator: TA98, Metabolic Activation: RAT, LIVER, S-9, PHENOBARBITAL AND 5,6-BENZOFLAVONE, Method: STANDARD PLATE) “inactive; negative”; (Test System: AMES SALMONELLA TYPHIMURIUM, Strain/Indicator: TA98, Metabolic Activation: RAT, LIVER, S-9, PHENOBARBITAL AND BETA-NAPHTHOFLAVONE, Method: STANDARD PLATE) “inactive; negative”; under setting [5], “inactive; negative”; under setting [3], “inactive; negative”; (Test System: AMES SALMONELLA TYPHIMURIUM, Strain/Indicator: TA100, Metabolic Activation: RAT, LIVER, S-9, AROCLOR 1254, Method: PREINCUBATION) “inactive; negative”; (Test System: AMES SALMONELLA TYPHIMURIUM, Strain/Indicator: TA100, Metabolic Activation: RAT, LIVER, S-9, PHENOBARBITAL AND 5,6-BENZOFLAVONE, Method: STANDARD PLATE) “inactive; negative”. The mutagenic call (Test System: AMES SALMONELLA TYPHIMURIUM, Strain/Indicator: TA100, Metabolic Activation: RAT, LIVER, S-9, PHENOBARBITAL AND BETA-NAPHTHOFLAVONE, Method: STANDARD PLATE) was “inactive; negative”; the mutagenic call under setting [8] is “inactive; negative”; the mutagenic call (Test System: AMES SALMONELLA TYPHIMURIUM, Strain/Indicator: TA102, Metabolic Activation: RAT, LIVER, S-9, PHENOBARBITAL AND 5,6-BENZOFLAVONE, Method: STANDARD PLATE) was “inactive; negative”; the mutagenic call (Test System: AMES SALMONELLA TYPHIMURIUM, Strain/Indicator: TA102, Metabolic Activation: RAT, LIVER, S-9, PHENOBARBITAL AND BETA-NAPHTHOFLAVONE, Method: STANDARD PLATE) is “inactive; negative”.

For `CCCCOCC(=O)O`, the mutagenic call is, setting by setting: under setting [6], “inactive; negative”; (Test System: AMES SALMONELLA TYPHIMURIUM, Strain/Indicator: TA97A, Metabolic Activation: RAT, LIVER, S-9, AROCLOR 1254, Method: STANDARD PLATE) “inactive; negative”; under setting [1], “inactive; negative”; under setting [2], “inactive; negative”; under setting [3], “inactive; negative”; under setting [4], “inactive; negative”. The mutagenic call reads like this: under setting [8], “inactive; negative”; (Test System: AMES SALMONELLA TYPHIMURIUM, Strain/Indicator: TA102, Metabolic Activation: RAT, LIVER, S-9, AROCLOR 1254, Method: STANDARD PLATE) “inactive; negative”.

Turning to `CCCCCCCCCCCCOCCO`, the mutagenic call reads like this: (End Point: IN VITRO CHROMOSOMAL ABERRATIONS, Test System: CHO-LB CELLS, Metabolic Activation: NONE) “inactive; negative”; (End Point: IN VITRO CHROMOSOMAL ABERRATIONS, Test System: CHO-LB CELLS, Metabolic Activation: RAT, LIVER, S-9, AROCLOR 1254) “inactive; negative”; (Test System: AMES SALMONELLA TYPHIMURIUM, Strain/Indicator: TA98, Metabolic Activation: HAMSTER, LIVER, S-9, AROCLOR 1254 (10%), Method: PREINCUBATION) “inactive; negative”; under setting [7], “inactive; negative”; (Test System: AMES SALMONELLA TYPHIMURIUM, Strain/Indicator: TA98, Metabolic Activation: RAT, LIVER, S-9, AROCLOR 1254 (10%), Method: PREINCUBATION) “inactive; negative”; (Test System: AMES SALMONELLA TYPHIMURIUM, Strain/Indicator: TA100, Metabolic Activation: HAMSTER, LIVER, S-9, AROCLOR 1254 (10%), Method: PREINCUBATION) “inactive; negative”. Further, the mutagenic call under setting [5] was “inactive; negative”; the mutagenic call (Test System: AMES SALMONELLA TYPHIMURIUM, Strain/Indicator: TA100, Metabolic Activation: RAT, LIVER, S-9, AROCLOR 1254 (10%), Method: PREINCUBATION) is “inactive; negative”; the mutagenic call (Test System: AMES SALMONELLA TYPHIMURIUM, Strain/Indicator: TA1535, Metabolic Activation: HAMSTER, LIVER, S-9, AROCLOR 1254 (10%), Method: PREINCUBATION) is “inactive; negative”; the mutagenic call (Test System: AMES SALMONELLA TYPHIMURIUM, Strain/Indicator: TA1535, Metabolic Activation: NONE, Method: PREINCUBATION) was “inactive; negative”; the mutagenic call (Test System: AMES SALMONELLA TYPHIMURIUM, Strain/Indicator: TA1535, Metabolic Activation: RAT, LIVER, S-9, AROCLOR 1254 (10%), Method: PREINCUBATION) is “inactive; negative”; the mutagenic call (Test System: AMES SALMONELLA TYPHIMURIUM, Strain/Indicator: TA1537, Metabolic Activation: HAMSTER, LIVER, S-9, AROCLOR 1254 (10%), Method: PREINCUBATION) is “inactive; negative”. In addition, the mutagenic call (Test System: AMES SALMONELLA TYPHIMURIUM, Strain/Indicator: TA1537, Metabolic Activation: NONE, Method: PREINCUBATION) is “inactive; negative”; the mutagenic call (Test System: AMES SALMONELLA TYPHIMURIUM, Strain/Indicator: TA1537, Metabolic Activation: RAT, LIVER, S-9, AROCLOR 1254 (10%), Method: PREINCUBATION) was “inactive; negative”; the mutagenic call (Test System: E. COLI, Strain/Indicator: WP2 UVRA, Metabolic Activation: NONE, Method: STANDARD PLATE) is “inactive; negative”; the mutagenic call (Test System: E. COLI, Strain/Indicator: WP2 UVRA, Metabolic Activation: S-9, Method: STANDARD PLATE) was “inactive; negative”.
